This assay has as its target T1, MAPKAPK2 enzyme (HIS-MK2, Invitrogen PV4019) (Homo sapiens, UniProt P49137).
T1 construct: His; purchased Invitrogen PV4019
The assay can be described thus: Alternative MAPKAPK2 assay (Caliper microfluidic mobility shift, HSP27-peptide). The class given is biochemical. As to conditions: HIS-MK2 0.013 nM, ATP 10 μM, 60 min at 30° C.

Each structure is given as a SMILES string. Counter-ions that a name gives are not always drawn.

T1 sequence (P49137 whole entry): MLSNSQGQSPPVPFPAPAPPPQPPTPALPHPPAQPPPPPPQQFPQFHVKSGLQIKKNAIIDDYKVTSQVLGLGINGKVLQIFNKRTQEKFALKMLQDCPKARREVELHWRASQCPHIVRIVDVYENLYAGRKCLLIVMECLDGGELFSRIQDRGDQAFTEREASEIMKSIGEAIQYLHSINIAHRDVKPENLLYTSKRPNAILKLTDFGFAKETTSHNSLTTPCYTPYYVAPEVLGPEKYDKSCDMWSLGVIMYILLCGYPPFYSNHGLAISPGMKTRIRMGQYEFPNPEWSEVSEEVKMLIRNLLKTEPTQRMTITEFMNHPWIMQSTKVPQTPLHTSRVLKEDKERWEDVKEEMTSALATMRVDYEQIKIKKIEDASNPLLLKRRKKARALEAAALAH

One may read the IC50 as the concentration needed to halve the response being measured. Turning to `COc1ccc(-c2cc3c(cn2)CCc2c4c(n(C)c2-3)CC2(CNC2)NC4=O)cn1` [Example 141, 2-(3-Amino-azetidin-3-ylmethyl)-8-(6-methoxy-pyridin-3-yl)-1-methyl-4,5-dihydro-1H-pyrrolo[2,3-f]isoquinoline-3-carboxylic acid lactam hydrochloride], the IC50 amounted to 17 nM.
As to `CCN1CC2(C1)c1[nH]c3c(c1C(=O)NC21CC1)CCc1cnc(-c2cnc(OC)c(F)c2)cc1-3` [Example 252, 2-[3-(1-Amino-cyclopropyl)-1-ethyl-azetidin-3-yl]-8-(5-fluoro-6-methoxy-pyridin-3-yl)-4,5-dihydro-1H-pyrrolo[2,3-f]isoquinoline-3-carboxylic acid lactam], the IC50 amounted to 8 nM.
For `CC(=O)OCc1ccc(-c2cc3c(cn2)CCc2c-3[nH]c3c2C(=O)NC2(CC2)C3)cn1` [Example 244, 8-(6-Acetoxymethyl-pyridin-3-yl)-2-(1-amino-cyclopropylmethyl)-4,5-dihydro-1H-pyrrolo[2,3-f]isoquinoline-3-carboxylic acid lactam] the value was 43 nM; for `O=C(NCc1ccccc1)c1cccc(-c2cc3c(cn2)CCc2c-3[nH]c3c2C(=O)NCC32CN(CC3CC3)C2)c1` [Example 261, 2-(3-Aminomethyl-1-cyclopropylmethyl-azetidin-3-yl)-8-(3-benzylcarbamoyl-phenyl)-4,5-dihydro-1H-pyrrolo[2,3-f]isoquinoline-3-carboxylic acid lactam], 11 nM.
Consider `CC(C)Oc1ccc(-c2cc3c(cn2)CCc2c-3[nH]c3c2C(=O)NC2(CC2)C32CC2)cn1` [Example 200, 2-(1′-Amino-bicyclopropyl-1-yl)-8-[6-isopropoxy-pyridin-3-yl]-4,5-dihydro-1H-pyrrolo[2,3-f]isoquinoline-3-carboxylic acid lactam], for which the IC50 stood at 37 nM.
In the case of `Cn1c2c(c3c1-c1nc(-c4ccc(Br)cc4)ncc1CC3)C(=O)NC1(CNC1)C2` [Example 139, 2-(3-Amino-azetidin-3-ylmethyl)-8-(4-bromo-phenyl)-1-methyl-4,5-dihydro-1H-1,7,9-triaza-cyclopenta[a]naphthalene-3-carboxylic acid lactam hydrochloride], the IC50 was 18 nM.
For `N#Cc1cc(-c2cc3c(cn2)CCc2c-3[nH]c3c2C(=O)NCC32CC2)ccc1CN1CCOCC1` [Example 319, 2-Morpholin-4-ylmethyl-10-spirocyclopropyl-5-(7-oxo-6,7,8,9,10,11-hexahydro-5H-3,8,11-triaza-benzo[a]fluoren-2-yl)-benzonitrile], the IC50 was determined as 38 nM.
Turning to `O=C1NC2(CC2)C2(CNC2)c2[nH]c3c(c21)CCc1cnc(-c2cccc(F)c2)nc1-3` [Example 212, 2-[3-(1-Amino-cyclopropyl)-azetidin-3-yl]-8-(3-fluoro-phenyl)-4,5-dihydro-1H-1,7,9-triaza-cyclopenta[a]naphthalene-3-carboxylic acid lactam hydrochloride], the IC50 worked out at 5 nM.
Turning to `CC(=O)N1CCN(c2ccc(-c3cc4c(cn3)CCc3c-4[nH]c4c3C(=O)NCC43CC3)cc2C#N)CC1` [Example 313, 2-(4-Acetyl-piperazin-1-yl)-10-spirocyclopropyl-5-(7-oxo-6,7,8,9,10,11-hexahydro-5H-3,8,11-triaza-benzo[a]fluoren-2-yl)-benzonitrile], the IC50 stood at 8 nM.
With `COc1ccc(-c2ncc3c(n2)-c2c(c4c(n2C)C2(CNC4=O)CN(C)C2)CC3)cc1` [Example 219, 2-(3-Aminomethyl-1-methyl-azetidin-3-yl)-8-(4-methoxy-phenyl)-1-methyl-4,5-dihydro-1H-1,7,9-triaza-cyclopenta[a]naphthalene-3-carboxylic acid lactam], the IC50 amounted to 20 nM.
The value for `O=C(NCc1ccccc1)c1ccc(-c2cc3c(cn2)CCc2c-3[nH]c3c2C(=O)NC2(CC2)C3)o1` [Example 282, 5-(9,9-Spirocyclopropyl-7-oxo-6,7,8,9,10,11-hexahydro-5H-3,8,11-triaza-benzo[a]fluoren-2-yl)-furan-2-carboxylic acid benzylamide] was 21 nM; that for `CC(C)(O)C#Cc1ccc(-c2cc3c(cn2)CCc2c-3[nH]c3c2C(=O)NCC32CC2)cc1` [Example 119] was 89 nM; that for `Cc1ccc(-c2cc3c(cn2)CCc2c4c(n(C)c2-3)CC2(CNC2)NC4=O)cn1` [Example 151, 2-(3-Amino-azetidin-3-ylmethyl)-8-(6-methyl-pyridin-3-yl)-1-methyl-4,5-dihydro-1H-pyrrolo[2,3-f]isoquinoline-3-carboxylic acid lactam hydrochloride] was 35 nM.
As to `COc1ccc(-c2cc3c(cn2)CCc2c4c(n(C)c2-3)C2(CNC2)CNC4=O)cc1` [Example 163, 2-(3-Aminomethyl-azetidin-3-yl)-8-(4-methoxy-phenyl)-1-methyl-4,5-dihydro-1H-pyrrolo[2,3-f]isoquinoline-3-carboxylic acid lactam hydrochloride], the IC50 is 6 nM.
`O=C1NC2(CC2)C2(CNC2)c2[nH]c3c(c21)CCc1cnc(-c2ccc(C(F)(F)F)nc2)cc1-3` [Example 211, 2-[3-(1-Amino-cyclopropyl)-azetidin-3-yl]-8-(6-trifluoromethyl-pyridin-3-yl)-4,5-dihydro-1H-pyrrolo[2,3-f]isoquinoline-3-carboxylic acid lactam hydrochloride]: the IC50 is below 3 nM.
The value for `CN1CC2(C1)c1[nH]c3c(c1C(=O)NC21CC1)CCc1cnc(-c2cccc(F)c2)nc1-3` [Example 213, 2-[3-(1-Amino-cyclopropyl)-1-methyl-azetidin-3-yl]-8-(3-fluoro-phenyl)-4,5-dihydro-1H-1,7,9-triaza-cyclopenta[a]naphthalene-3-carboxylic acid lactam] was 19 nM; that for `O=C1NCC2(CC2)c2[nH]c3c(c21)CCc1cnc(-c2cncnc2)cc1-3` [Example 123, 2-(1-Aminomethyl-cyclopropyl)-8-pyrimidin-5-yl-4,5-dihydro-1H-pyrrolo[2,3f]isoquinoline-3-carboxylic acid lactam] was 30 nM; that for `O=C1NCC2(CNC2)c2[nH]c3c(c21)CCc1cnc(-c2ccc(F)nc2)cc1-3` [Example 160, 2-(3-Aminomethyl-azetidin-3-yl)-8-(6-fluoro-pyridin-3-yl)-4,5-dihydro-1H-pyrrolo[2,3-f]isoquinoline-3-carboxylic acid lactam hydrochloride] was below 3 nM.
As to `CCN1CC2(CNC(=O)c3c2[nH]c2c3CCc3cnc(-c4cccc(C(=O)NCc5ccccc5)c4)cc3-2)C1` [Example 263, 2-(3-Aminomethyl-1-ethyl-azetidin-3-yl)-8-(3-benzylcarbamoyl-phenyl)-4,5-dihydro-1H-pyrrolo[2,3-f]isoquinoline-3-carboxylic acid lactam], the IC50 is below 3 nM.
In the case of `CN1CCN(c2ccc(-c3cc4c(cn3)CCc3c-4[nH]c4c3C(=O)NCC43CC3)cn2)CC1` [Example 316, 2-[6-(4-Methyl-piperazin-1-yl)-pyridin-3-yl]-10-spirocyclopropyl-5,6,8,9,10,11-hexahydro-3,8,11-triaza-benzo[a]fluoren-7-one], the IC50 stood at 11 nM.
In the case of `Cn1c2c(c3c1C1(CNC1)C1(CC1)NC3=O)CCc1cnc(-c3cccc(F)c3)cc1-2` [Example 209, 2-[3-(1-Amino-cyclopropyl)-azetidin-3-yl]-8-(3-fluoro-phenyl)-1-methyl-4,5-dihydro-1H-pyrrolo[2,3-f]isoquinoline-3-carboxylic acid lactam hydrochloride], the IC50 is 3 nM.
`CCOc1ccc(-c2ncc3c(n2)-c2c(c4c(n2C)CC2(CNC2)NC4=O)CC3)cc1` [Example 59, 2-(3-Amino-azetidin-3-ylmethyl)-8-(4-ethoxyphenyl)-1-methyl-4,5-dihydro-1H-1,7,9-triaza-cyclopenta[a]naphthalene-3-carboxylic acid lactam hydrochloride]: the IC50 was found to be 13 nM.
Turning to `CN(C)c1ccc(-c2cc3c(cn2)CCc2c-3[nH]c3c2C(=O)NCC32CC2)cn1` [Example 117], the IC50 was 19 nM.
For `CN1CC2(CNC(=O)c3c2[nH]c2c3CCc3cnc(-c4cccc(C(=O)NCc5ccccc5)c4)cc3-2)C1` [Example 262, 2-(3-Aminomethyl-1-methyl-azetidin-3-yl)-8-(3-benzylcarbamoyl-phenyl)-4,5-dihydro-1H-pyrrolo[2,3-f]isoquinoline-3-carboxylic acid lactam], the IC50 is below 3 nM.
Turning to `CN1CCN(c2ccc(-c3cc4c(cn3)CCc3c-4[nH]c4c3C(=O)NC3(CC3)C43CC3)cc2)CC1` [Example 221, 2-(1′-Amino-bicyclopropyl-1-yl)-8-[4-(4-methyl-piperazin-1-yl)-phenyl]-4,5-dihydro-1H-pyrrolo[2,3-f]isoquinoline-3-carboxylic acid lactam], the IC50 stood at 29 nM.
For the molecule `COc1ccc(-c2cc3c(cn2)CCc2c4c(n(C)c2-3)CC2(CNC2)NC4=O)cc1OC` [Example 144, 2-3-Amino-azetidin-3-ylmethyl)-8-(3,4-dimethoxy-phenyl)-1-methyl-4,5-dihydro-1H-pyrrolo[2,3-f]isoquinoline-3-carboxylic acid lactam hydrochloride], the IC50 amounted to 58 nM.
For `COc1ccc(-c2cc3c(cn2)CCc2c4c(n(C)c2-3)CC2(CN(C)C2)NC4=O)cn1` [Example 142, 2-(3-Amino-1-methyl-azetidin-3-ylmethyl)-8-(6-methoxy-pyridin-3-yl)-1-methyl-4,5-dihydro-1H-pyrrolo[2,3-f]isoquinoline-3-carboxylic acid lactam] the value was 34 nM; for `O=C1NC2(CC2)Cc2[nH]c3c(c21)CCc1cnc(-c2ccc(CCCN4CCOCC4)cc2)cc1-3` [Example 246, 2-(1-Amino-cyclopropylmethyl)-8-[4-(3-morpholin-4-yl-propyl)-phenyl]-4,5-dihydro-1H-pyrrolo[2,3-f]isoquinoline-3-carboxylic acid lactam], 100 nM; for `COc1ccc(-c2cc3c(cn2)CCc2c-3[nH]c3c2C(=O)N[C@@H]2C[C@H]32)cc1` (racemic) [Example 52, (+)-2-(2-Amino-cyclopropyl)-8-(4-methoxy-phenyl)-4,5-dihydro-1H-1,7-diaza-cyclopenta[a]naphthalene-3-carboxylic acid lactam], 35 nM.

Values taken from patent US7838674B2, “Tetracyclic lactame derivatives” (Novartis AG, priority 2007, dated 2010).
